Experiment [1] has as its system Hepatitis C virus. The experiment can be described thus: Inhibition of HCV subgenomic RNAs replication in human hepatoma cells. The format is functional, Hepacivirus hominis.
The nature of experiment [2]: Inhibition of HCV NS3 protease assessed as hydrolysis of chromogenic 4-phenylazophenyl ester from peptide fragment Ac-DTEDVVP(Nva)-O-4-PAP by spectrophotometry. More on the design: species or system Hepacivirus hominis.

Each structure is given as a SMILES string.

As for `CC(C)(C)NC(=O)N[C@H](C(=O)N1C[C@H]2[C@@H](C1C(=O)N[C@@H](CC1CCC1)B1O[C@@H]3C[C@@H]4C[C@@H](C4(C)C)[C@]3(C)O1)C2(C)C)C(C)(C)C` (stereo partly drawn), the EC90 (in general, the concentration needed for an effect of 90%) in experiment [1] is greater than 5000 nM. For the same compound, the Ki (as a rule, the equilibrium dissociation constant of an inhibitor or competing ligand from its target) in experiment [2] was 10 nM.
In experiment [1], `CC[C@H](NC(=O)[C@@H]1[C@@H]2[C@H](CN1C(=O)[C@@H](NC(=O)N[C@H](CN(C)S(C)(=O)=O)C(C)(C)C)C(C)(C)C)C2(C)C)B(O)O` returned an EC90 greater than 5000 nM. Moreover, in experiment [2], the inhibitory constant (Ki) was found to be 52 nM.
For `CN(C[C@@H](NC(=O)N[C@H](C(=O)N1C[C@H]2[C@@H]([C@H]1C(=O)N[C@@H](CC1CCC1)B(O)O)C2(C)C)C(C)(C)C)C(C)(C)C)S(C)(=O)=O` the same measures were greater than 5000 nM and 0.2 nM.
For `CC[C@H](NC(=O)[C@@H]1[C@@H]2[C@H](CN1C(=O)[C@@H](NC(=O)NC(C)(C)C)C(C)(C)C)C2(C)C)B(O)O` the same measures were greater than 5000 nM and 10 nM.
For `CC[C@H](NC(=O)C1[C@@H]2[C@H](CN1C(=O)[C@@H](NC(=O)NC(C)(C)C)C(C)(C)C)C2(C)C)B1O[C@@H]2C[C@@H]3C[C@@H](C3(C)C)[C@]2(C)O1` (stereo partly drawn) the same measures were greater than 5000 nM and 380 nM.
Take `CC[C@H](NC(=O)[C@@H]1[C@@H]2[C@H](CN1C(=O)[C@@H](NC(=O)NC(C)(C)C)C(C)(C)C)C2(C)C)B1O[C@@H]2C[C@@H]3C[C@@H](C3(C)C)[C@]2(C)O1`: the EC90 in experiment [1] is greater than 5000 nM. Further, the Ki in experiment [2] stood at 500 nM.
In experiment [1], `CN(C[C@@H](NC(=O)N[C@H](C(=O)N1C[C@H]2[C@@H]([C@H]1C(=O)N[C@@H](CC1CCC1)B1O[C@@H]3C[C@@H]4C[C@@H](C4(C)C)[C@]3(C)O1)C2(C)C)C(C)(C)C)C(C)(C)C)S(C)(=O)=O` returned a 90% effect concentration (EC90) greater than 5000 nM. In addition, in experiment [2], the Ki was 0.5 nM.
For `CC[C@H](NC(=O)[C@@H]1[C@@H]2[C@H](CN1C(=O)[C@@H](NC(=O)N[C@H](CN(C)S(C)(=O)=O)C(C)(C)C)C(C)(C)C)C2(C)C)B1O[C@@H]2C[C@@H]3C[C@@H](C3(C)C)[C@]2(C)O1` the same measures were greater than 5000 nM and 34 nM.
For `CC(C)(C)NC(=O)N[C@H](C(=O)N1C[C@H]2[C@@H]([C@H]1C(=O)NC(CC1CCC1)C(=O)C(N)=O)C2(C)C)C(C)(C)C` (stereo partly drawn) [BOCEPREVIR] the same measures were 350 nM and 14 nM.

Source of the values: ChEMBL document CHEMBL1139280, “Potent inhibitors of HCV-NS3 protease derived from boronic acids” (Bioorg Med Chem Lett, 2009).
